# Results from patent US9371330B2, “Substituted pyrazino[1,2-a]pyrimidines useful as CBP/catenin antagonists for enhancing asymmetric division of somatic stem cells” (University of Southern California, priority 2011, dated 2016).
# Like-named read-outs stand apart in the source and are kept apart here.
# Legend:
# SW620 xenograft = assay: nude mouse SW620 xenograft model of colon cancer; conditions: in vivo
# Description: (§1) Cancer. The importance of Wnt signaling in colorectal cancer is undisputed. Applicant's investigation on the therapeutic utility of ICG-001 therefore quite naturally began with colon cancer.
# [1] = tested on: mitotic cells in the ventricular zone (VZ); assay: symmetric versus asymmetric divisions (Par3 distribution) in the ventricular zone of mouse embryos; assay type: in vivo; conditions: topical or oral administration to pregnant mice
# Description: Taking advantage of the ready uptake and penetration through the placental barrier of applicant's small molecule Wnt modulators, applicant designed a series of experiments to investigate symmetric versus asymmetric divisions in the ventricular zone (VZ) of the brain during mouse embryonic development. Timed pregnant mice were topically treated for various time periods (1-3 days) with DMSO (vehicle control), the CBP/catenin antagonist ICG-001 or the p300/catenin antagonist IQ-1. Using a previously described protocol (56), the localization of […] (Par3) and DNA was examined in mitotic cells in the VZ. Par3 distributes symmetrically in cells that divide symmetrically and asymmetrically in cells that divide asymmetrically, whereas the DNA distributes symmetrically between the 2 cells. Using fluorescence microscopy, the percentage of mitotic cells dividing symmetrically or asymmetrically could be quantified. […] Antagonizing the CBP/catenin interaction with ICG-001 had no apparent effect yielding similarly, approximately 21% asymmetric divisions. […] Importantly, this decrease in asymmetric divisions upon treatment with IQ-1 could be rescued back essentially to control levels (i.e. ˜21%) by treatment with a 2-fold excess of ICG-001. Even further divergence in symmetric versus asymmetric divisions could be seen upon prolonged treatments. For example, treatment with IQ-1 (i.e., antagonizing p300/catenin interaction leading to increased usage of CBP) for 3 days (E13.5-16.5) decreased asymmetric divisions compared to control from 31% to 7%. […] This reporter mouse expresses EGFP, driven by the Tis21 promoter, in cells that have undergone neurogenic differentiative divisions.
# For example, Bultje et al (Bultje R Neuron 63, 189-202, 2009) describe an assay to measure asymmetric distributions in the ventricular zone (vz) to evaluate asymmetric divisions during neurogenesis. Essentially this involves treating the animal (either adult or in utero) for a set period of time with compounds (either p.o., s.c., i.v. or topically) with compounds and then sacrificing the animal and examining the Par3 distribution (e.g., via immunohistochemistry) in mitotic cells vs. DNA distribution (e.g., using DAPI staining) Par3 distributes equally among the two daughter cells during symmetric division and unequally (essentially all in one daughter cell) during asymmetric differentiation.
# colorectal cancer cells = assay: colorectal cancer cells: survivin and cytotoxicity; assay type: cell-based
# Description: as §1
# CBP = CBP (Homo sapiens, UniProt Q92793); assay: binding to coactivator CBP (affinity chromatography; binding and isothermal calorimetry)
# CBP, sequence (Q92793 whole entry): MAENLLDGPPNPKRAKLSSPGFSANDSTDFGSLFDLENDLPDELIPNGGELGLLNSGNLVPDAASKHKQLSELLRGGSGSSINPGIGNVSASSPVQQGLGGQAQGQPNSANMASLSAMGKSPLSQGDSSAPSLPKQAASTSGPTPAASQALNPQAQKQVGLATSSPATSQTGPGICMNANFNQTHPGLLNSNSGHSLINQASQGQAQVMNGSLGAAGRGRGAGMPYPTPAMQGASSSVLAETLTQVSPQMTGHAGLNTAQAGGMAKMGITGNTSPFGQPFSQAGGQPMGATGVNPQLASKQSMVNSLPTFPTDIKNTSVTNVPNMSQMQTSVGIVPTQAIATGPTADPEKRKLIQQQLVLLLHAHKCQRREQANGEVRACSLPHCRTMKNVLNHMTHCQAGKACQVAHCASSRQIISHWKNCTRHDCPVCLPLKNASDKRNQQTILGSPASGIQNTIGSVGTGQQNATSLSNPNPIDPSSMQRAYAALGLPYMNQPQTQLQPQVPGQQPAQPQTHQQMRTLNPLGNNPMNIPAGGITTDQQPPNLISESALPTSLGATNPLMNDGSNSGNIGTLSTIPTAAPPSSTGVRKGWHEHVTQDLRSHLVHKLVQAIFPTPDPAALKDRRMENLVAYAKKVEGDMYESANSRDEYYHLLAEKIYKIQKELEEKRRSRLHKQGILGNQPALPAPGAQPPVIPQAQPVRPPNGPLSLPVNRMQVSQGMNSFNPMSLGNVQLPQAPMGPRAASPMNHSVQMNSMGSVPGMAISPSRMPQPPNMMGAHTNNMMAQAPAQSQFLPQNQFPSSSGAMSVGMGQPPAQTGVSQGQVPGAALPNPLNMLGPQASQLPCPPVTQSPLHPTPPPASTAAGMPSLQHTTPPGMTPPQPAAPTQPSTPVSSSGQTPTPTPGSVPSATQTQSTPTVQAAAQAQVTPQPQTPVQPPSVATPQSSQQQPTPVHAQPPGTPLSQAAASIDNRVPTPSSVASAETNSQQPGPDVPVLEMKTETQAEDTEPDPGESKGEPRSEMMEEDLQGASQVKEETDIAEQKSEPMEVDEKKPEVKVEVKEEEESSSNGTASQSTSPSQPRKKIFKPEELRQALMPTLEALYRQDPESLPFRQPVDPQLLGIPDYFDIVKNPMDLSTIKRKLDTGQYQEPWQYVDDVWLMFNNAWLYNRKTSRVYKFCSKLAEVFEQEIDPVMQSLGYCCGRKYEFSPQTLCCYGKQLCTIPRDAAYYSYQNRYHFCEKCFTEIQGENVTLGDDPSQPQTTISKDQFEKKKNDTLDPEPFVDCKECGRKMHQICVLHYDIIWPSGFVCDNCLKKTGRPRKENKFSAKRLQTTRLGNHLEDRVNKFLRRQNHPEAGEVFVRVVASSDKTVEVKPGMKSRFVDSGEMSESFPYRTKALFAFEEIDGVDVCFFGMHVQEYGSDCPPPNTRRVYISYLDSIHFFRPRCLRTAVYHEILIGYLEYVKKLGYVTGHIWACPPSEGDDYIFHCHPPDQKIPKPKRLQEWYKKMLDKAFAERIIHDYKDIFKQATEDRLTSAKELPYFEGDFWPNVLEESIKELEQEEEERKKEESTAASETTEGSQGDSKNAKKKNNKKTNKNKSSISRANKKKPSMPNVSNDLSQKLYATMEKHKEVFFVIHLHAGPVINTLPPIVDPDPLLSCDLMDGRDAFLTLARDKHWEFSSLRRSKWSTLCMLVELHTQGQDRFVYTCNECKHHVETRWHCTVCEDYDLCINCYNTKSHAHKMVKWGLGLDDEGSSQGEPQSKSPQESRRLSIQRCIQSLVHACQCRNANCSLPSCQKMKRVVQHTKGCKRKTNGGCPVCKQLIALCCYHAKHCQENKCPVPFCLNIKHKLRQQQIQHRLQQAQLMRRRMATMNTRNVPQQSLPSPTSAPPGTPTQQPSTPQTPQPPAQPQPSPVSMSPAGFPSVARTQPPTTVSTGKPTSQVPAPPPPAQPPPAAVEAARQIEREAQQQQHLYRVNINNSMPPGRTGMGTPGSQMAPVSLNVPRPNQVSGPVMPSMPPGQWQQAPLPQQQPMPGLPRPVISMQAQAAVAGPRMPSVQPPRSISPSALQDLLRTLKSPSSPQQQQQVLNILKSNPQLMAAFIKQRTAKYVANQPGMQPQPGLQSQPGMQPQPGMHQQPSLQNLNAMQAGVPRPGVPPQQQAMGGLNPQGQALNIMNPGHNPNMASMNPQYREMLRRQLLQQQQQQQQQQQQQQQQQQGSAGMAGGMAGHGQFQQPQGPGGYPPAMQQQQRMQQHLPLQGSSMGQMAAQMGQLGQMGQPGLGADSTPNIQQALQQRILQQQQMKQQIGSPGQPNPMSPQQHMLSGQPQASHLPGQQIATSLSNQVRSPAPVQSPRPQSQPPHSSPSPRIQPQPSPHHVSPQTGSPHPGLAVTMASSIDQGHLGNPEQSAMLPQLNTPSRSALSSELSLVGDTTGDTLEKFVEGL
# Description: (§2) ICG-001. Applicant's pharmacologic tools were identified using cell-based forward chemical genomic screens of small molecule secondary structure template chemical libraries (22).
# (§3) Applicant next mapped the binding domains between CBP and beta-catenin, as well as between p300 and beta-catenin. The C-terminal trans-activating region of beta-catenin (647-781) interacted with the same 1-111 amino acids of both CBP and p300 (23). However, only the interaction between CBP and beta-catenin was disrupted by ICG-001, and not the p300/beta-catenin interaction.
# [2] = molecular target: CBP/beta-catenin interaction (Homo sapiens, UniProt Q92793); assay: disruption of CBP/beta-catenin interaction; assay type: binding
# CBP/beta-catenin interaction, sequence (Q92793 1-111): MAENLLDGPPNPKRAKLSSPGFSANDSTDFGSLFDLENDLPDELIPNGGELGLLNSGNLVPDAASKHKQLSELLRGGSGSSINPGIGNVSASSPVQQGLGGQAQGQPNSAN
# Description: as §3
# [3] = tested on: Wnt/catenin transcription in SW480 colon carcinoma cells; assay: TOPFLASH TCF/catenin luciferase reporter; assay type: cell-based; conditions: Homo sapiens
# Description: as §2
# [4] = topical treatment of pregnant mice throughout pregnancy, offspring outcome; assay type: in vivo, mouse; conditions: mothers treated topically 0.5M
# Description: Acute Promyelocytic Leukemia (APL) is unique among myeloid leukemias due to its sensitivity to all-trans retinoic acid (ATRA), a derivative of vitamin A. Treatment with ATRA dissociates the NCOR-HDACL complex from RAR and allows DNA transcription and differentiation of the immature leukemic promyelocytes into mature granulocytes by targeting the oncogenic transcription factor and its aberrant action. […] A large number of scientific studies have also investigated a possible role for vitamin D in cancer prevention, including colon, prostate, breast, pancreatic and skin cancer. […] However, there are also reports of synergistic effects on the activation of gene expression by ATRA and Wnt for example (47). […] This is the same region of these coactivator proteins (i.e., CBP and p300) that partners with catenin (both beta and gamma) and the CBP/catenin antagonists (e.g., ICG-001) also bind to this region. These nuclear receptor ligands have many of the same differentiating effects on stem cell populations that applicant has observed with specific CBP/catenin antagonists. Although, both Vitamin A and D are required during development and have many beneficial health effects in adulthood, both are teratogenic at high levels. […]
# [5] = tested on: rat type II lung epithelial cells; assay: TGF-β1-induced EMT genes in rat type II lung epithelial cells; assay type: cell-based
# Description: Fibrosis. Idiopathic pulmonary fibrosis (IPF)/usual interstitial pneumonia (UIP), the most common of the idiopathic interstitial pneumonias, is a devastating, progressive disorder characterized by excessive fibroblast proliferation and extracellular matrix remodeling leading to lung destruction. There is currently no effective therapy for this uniformly fatal disease. An emerging paradigm proposes a central role for alveolar epithelial cell injury and dysregulated repair in the pathogenesis of IPF. Injury to the epithelium is thought to initiate a cascade of fibroblast activation and matrix deposition, which in predisposed hosts fails to resolve as it would in the course of normal wound repair. Epithelial cells undergo excessive apoptosis, whereas fibroblasts are less amenable to apoptosis and manifest increased survival. The well-characterized model of bleomycin-induced lung injury has been extensively used to investigate potential pathways involved in the pathogenesis of pulmonary fibrosis and to explore therapeutic approaches.
# [6] = molecular target: p300/beta-catenin interaction (Homo sapiens, UniProt Q09472); assay: disruption of p300/beta-catenin interaction; assay type: binding
# p300/beta-catenin interaction, sequence (Q09472 1-111): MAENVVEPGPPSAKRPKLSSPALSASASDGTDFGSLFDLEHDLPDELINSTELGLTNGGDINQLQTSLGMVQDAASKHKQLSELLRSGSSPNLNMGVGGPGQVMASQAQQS
# Description: as §3
smiles,measurement,setting,value
O=C1[C@H](Cc2ccc(O)cc2)N2C(=O)CCN(C(=O)NCc3ccccc3)[C@H]2CN1Cc1cccc2ccccc12 [ICG-001],tumor growth,SW620 xenograft,reducing tumor growth
same,effect on number of asymmetric divisions,[1],does not affect the number of asymmetric divisions
same,survivin expression,colorectal cancer cells,down-regulated survivin
same,cytotoxicity,colorectal cancer cells; colorectal cancer cells vs normal colonic epithelial cells,"selective cytotoxicity in colorectal cancer cells, but not in normal colonic epithelial cells"
same,Kd,"CBP; affinity chromatography approach, read-out: binding affinity to the coactivator CBP",~1 nM
same,Kd,"CBP; binding and isothermal calorimetry studies, read-out: binding affinity to the N-terminus of CBP",~1 nM
same,disruption of the CBP/beta-catenin interaction,[2],disrupted
same,IC50,[3],3000 nM
same,weight and size of offspring at 6 weeks of age,[4]; ~E0.5 to ~E20,normal weight and size
same,effects on germ cell populations of offspring,[4]; second generation bred,no deleterious effects on germ cell populations
same,TGF-β1-induced up-regulation of α-SMA and type I collagen,[5],prevents the TGF-β1-induced up-regulation of α-SMA and type I collagen
same,effect on the p300/beta-catenin interaction,[6],without affecting the p300/beta-catenin interaction
